Measurements from US12633373B2, “Systems and methods to predict structures and properties of biomolecule-ligand complexes and uses thereof” (The Board of Trustees of the Leland Stanford Junior …, priority 2020, dated 2026).

Experiments:
[1] = test system: D2 dopamine receptor (D2R) Val91 and Trp100 mutants; test: Mutagenesis of Val91 and Trp100 of D2R, ligand affinity; conditions: mutation of Val91 and Trp100, top of the ligand binding pocket
Excerpt: Mutations to several residues surrounding the top and bottom of the binding pocket were also considered. Unlike Glide, the embodiment predicts that all four ligands will position a fluorobenzene ring at the bottom of the binding pocket, packing favorably against Trp386 (W386). […] At the top of the ligand binding pocket, near Val91 and Trp100, the embodiment predicts that the pimozide and benperidol will place identical functional groups that differ somewhat from those of spiperone and mespiperone.

[2] = molecular target: D2 dopamine receptor (D2R) S193 mutants (Val, Leu, Ala) (Homo sapiens, UniProt P14416, S193A); test: Mutagenesis of Ser193 (S193) of D2R, ligand affinity; assay type: binding; conditions: S193 mutated to a smaller residue (Ala)
Excerpt: (§1) To test the embodiment's predictions, mutagenesis experiments were designed.

[3] = test system: D2 dopamine receptor (D2R) S193 mutants (Val, Leu, Ala); test: as above; assay type: binding; conditions: S193 mutated to a larger residue (Val or Leu)
Excerpt: as §1

Chain of D2 dopamine receptor (D2R) S193 mutants (Val, Leu, Ala) (Homo sapiens, UniProt P14416, S193A) (P14416 whole entry S193A): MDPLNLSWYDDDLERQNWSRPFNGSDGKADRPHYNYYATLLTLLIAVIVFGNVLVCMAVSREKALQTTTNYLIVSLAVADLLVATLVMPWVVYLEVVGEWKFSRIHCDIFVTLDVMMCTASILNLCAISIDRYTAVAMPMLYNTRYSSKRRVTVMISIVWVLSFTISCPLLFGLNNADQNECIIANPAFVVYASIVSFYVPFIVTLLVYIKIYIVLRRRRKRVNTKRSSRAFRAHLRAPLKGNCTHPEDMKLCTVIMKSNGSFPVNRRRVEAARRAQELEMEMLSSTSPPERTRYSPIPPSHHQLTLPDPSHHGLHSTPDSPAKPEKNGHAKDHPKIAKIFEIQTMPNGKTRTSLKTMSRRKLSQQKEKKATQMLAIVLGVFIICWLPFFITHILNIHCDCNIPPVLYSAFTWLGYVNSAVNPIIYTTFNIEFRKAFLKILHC

In the case of `O=C(CCCN1CCC(n2c(O)nc3ccccc32)CC1)c1ccc(F)cc1` [benperidol], the “effect of mutation on ligand” value [1] is reported as “slightly differently from spiperone and mespiperone”, the “change of affinity on mutation” value [2] is reported as “not observed” and the “change of affinity on mutation” value [3] is reported as “increases”.
